From patent US20230167088A1, “1-PYRAZINYLPYRAZOLYL-3-OXYALKYL ACIDS AND THEIR DERIVATIVES, AND THEIR USE FOR CONTROL OF UNDESIRED PLANT GROWTH” (BAYER AKTIENGESELLSCHAFT, priority 2020, published 2023)

Legend:
[1] = tested on: ALOMY; assay: Herbicidal post-emergence action 1a (greenhouse pots, visual rating); type: in vivo, Alopecurus myosuroides; conditions: Dosage 80 g/ha; rated visually about 3 weeks after treatment; 100% = plants have died, 0% = like control plants
How it was run: (§1)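 Weeds and crops sown in sandy loam in greenhouse pots were sprayed post-emergence at the one-leaf stage (2–3 weeks after sowing) with WP or EC formulations plus 0.5% additive at 600 l/ha water, 320 and/or 80 g/ha. About 3 weeks later damage was rated visually against untreated controls (0% = no effect, 100% = dead).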

[2] = tested on: AVEFA; assay: as above; type: in vivo, Avena fatua; conditions: Dosage 80 g/ha; rated visually about 3 weeks after treatment; 100% = plants have died, 0% = like control plants
How it was run: as §1

[3] = tested on: AMARE; assay: as above; type: in vivo, Amaranthus retroflexus; conditions: dosage 80 g/ha, visual rating about 3 weeks after treatment
How it was run: as §1

[4] = tested on: POAAN; assay: Herbicidal post-emergence action 1b (twin sowing, 1280 g/ha); type: in vivo, Poa annua; conditions: dosage 1280 g/ha, visual rating about 3 weeks after treatment
How it was run: (§2)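 Twin-sown mono- and dicot weeds in sandy loam were sprayed post-emergence at the one-leaf stage, 2–3 weeks after sowing, with WP or EC formulations in water plus 0.5% additive at 600 L/ha. After about 3 weeks in the greenhouse, activity was rated visually against untreated controls (0% = like control, 100% = plants dead).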

[5] = tested on: DIGSA; assay: as above; type: in vivo, Digitaria sanguinalis; conditions: dosage 1280 g/ha, visual rating about 3 weeks after treatment
Method: (§3) [table] b) Seeds of mono- and dicotyledonous weed plants are placed in plastic pots in sandy loam soil (twin sowing with one species each of mono- or dicotyledonous weed plants per pot), covered with soil and cultivated in a greenhouse under controlled growth conditions. 2 to 3 weeks after sowing, the test plants are treated at the one-leaf stage. The compounds of the invention, formulated in the form of wettable powders (WP) or as emulsion concentrates (EC), are applied to the green parts of the plants as aqueous suspension or emulsion with addition of 0.5% additive at a water application rate equivalent to 600 litres per hectare. After the test plants have been kept in the greenhouse under optimum growth conditions for about 3 weeks, the activity of the preparations is rated visually in comparison to untreated controls. For example, 100% activity=the plants have died, 0% activity=like control plants. Tables A16 to A21 below show the effects of selected compounds of the general formula (I) according to Tables 1 and 2 on various harmful plants and at an application rate corresponding to 1280 g/ha, which were obtained by the experimental procedure mentioned above.

[6] = tested on: ECHCG; assay: as above; type: in vivo, Echinochloa crus-galli; conditions: dosage 1280 g/ha, visual rating about 3 weeks after treatment
Method: as §3

[7] = tested on: MATIN; assay: as above; type: in vivo, Matricaria inodora; conditions: dosage 1280 g/ha, visual rating about 3 weeks after treatment
How it was run: as §2

[8] = tested on: STEME; assay: as above; type: in vivo, Stellaria media; conditions: dosage 1280 g/ha, visual rating about 3 weeks after treatment
Method: as §3

[9] = tested on: ALOMY; assay: Herbicidal pre-emergence action 2a (greenhouse pots, visual scoring); type: in vivo, Alopecurus myosuroides; conditions: dosage 320 g/ha, visual scoring after about 3 weeks
How it was run: (§4)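 Sow, cover with soil, spray soil surface (WP or EC in water, 0.5% additive, 600 l/ha; 320 and/or 80 g/ha), grow in greenhouse ~3 weeks, score visually in % against untreated controls.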

[10] = tested on: AVEFA; assay: as above; type: in vivo, Avena fatua; conditions: dosage 320 g/ha, visual scoring after about 3 weeks
How it was run: as §4

[11] = tested on: LOLRI; assay: as above; type: in vivo, Lolium rigidum; conditions: dosage 320 g/ha, visual scoring after about 3 weeks vs untreated controls
How it was run: as §4

[12] = tested on: AMARE; assay: as above; type: in vivo, Amaranthus retroflexus; conditions: dosage 320 g/ha, visual scoring after about 3 weeks vs untreated controls
How it was run: as §4

[13] = tested on: POLCO; assay: as above; type: in vivo, Polygonum convolvulus; conditions: dosage 320 g/ha, visual scoring after about 3 weeks vs untreated controls
How it was run: as §4

[14] = tested on: VIOTR; assay: as above; type: in vivo, Viola tricolor; conditions: dosage 320 g/ha, visual scoring after about 3 weeks vs untreated controls
Description: [table] a) Seeds of monocotyledonous and dicotyledonous weed plants and crop plants are placed in plastic or organic plant pots and covered with soil. The compounds of the invention, formulated in the form of wettable powders (WP) or as emulsion concentrates (EC), are then applied onto the surface of the covering soil as aqueous suspension or emulsion with addition of 0.5% additive at a water application rate of 600 1/ha (converted). After the treatment, the pots are placed in a greenhouse and kept under good growth conditions for the trial plants. After about 3 weeks, the effect of the preparations is scored visually in comparison with untreated controls as percentages. For example, 100% activity=the plants have died, 0% activity=like control plants. Tables B1 to B15 below show the effects of selected compounds of the general formula (I) according to Tables 1 and 2 on various harmful plants and an application rate corresponding to 320 g/ha and/or 80 g/ha, which were obtained by the experimental procedure mentioned above.

[15] = tested on: VERPE; assay: as above; type: in vivo, Veronica persica; conditions: dosage 320 g/ha, visual scoring after about 3 weeks vs untreated controls
How it was run: as §4

[16] = tested on: POAAN; assay: Herbicidal pre-emergence action 2b (doubly sown, 1280 g/ha); type: in vivo, Poa annua; conditions: doubly sown pots, dosage 1280 g/ha, visual scoring after about 3 weeks
How it was run: (§5)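 Weed seeds sown in sandy loam, two species per pot, covered with soil; compounds as WP or EC applied to soil surface as aqueous suspension/emulsion with 0.5% additive at 600 L/ha water. Greenhouse growth; visual % activity vs untreated controls after about 3 weeks (100% = dead, 0% = like control).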

[17] = tested on: DIGSA; assay: as above; type: in vivo, Digitaria sanguinalis; conditions: doubly sown pots, dosage 1280 g/ha, visual scoring after about 3 weeks
How it was run: as §5

[18] = tested on: ECHCG; assay: as above; type: in vivo, Echinochloa crus-galli; conditions: doubly sown pots, dosage 1280 g/ha, visual scoring after about 3 weeks
How it was run: as §5

[19] = tested on: AMARE; assay: as above; type: in vivo, Amaranthus retroflexus; conditions: doubly sown pots, dosage 1280 g/ha, visual scoring after about 3 weeks
How it was run: as §5

[20] = tested on: MATIN; assay: as above; type: in vivo, Matricaria inodora; conditions: doubly sown pots, dosage 1280 g/ha, visual scoring after about 3 weeks
How it was run: as §5

[21] = tested on: STEME; assay: as above; type: in vivo, Stellaria media; conditions: doubly sown pots, dosage 1280 g/ha, visual scoring after about 3 weeks
How it was run: as §5

[22] = tested on: ABUTH; assay: Herbicidal post-emergence action 1b (twin sowing, 1280 g/ha); type: in vivo, Abutilon theophrasti; conditions: dosage 1280 g/ha, visual rating about 3 weeks after treatment
Method: as §3

Structure (SMILES)	Post-emergence action at 1280 g/ha against POAAN in % [4] [%]	Post-emergence action at 1280 g/ha against DIGSA in % [5] [%]	Post-emergence action at 1280 g/ha against ECHCG in % [6] [%]	Post-emergence action at 1280 g/ha against MATIN in % [7] [%]	Post-emergence action at 1280 g/ha against STEME in % [8] [%]	Pre-emergence action at 1280 g/ha against POAAN in % [16] [%]	Pre-emergence action at 1280 g/ha against DIGSA in % [17] [%]	Pre-emergence action at 1280 g/ha against ECHCG in % [18] [%]	Pre-emergence action at 1280 g/ha against AMARE in % [19] [%]	Pre-emergence action at 1280 g/ha against MATIN in % [20] [%]	Pre-emergence action at 1280 g/ha against STEME in % [21] [%]	Post-emergence action at 1280 g/ha against ABUTH in % [22] [%]	further results
COC(=O)[C@@H](C)Oc1nn(-c2nccnc2Cl)c(-c2ccc(F)nc2)c1Br [Example I-72]	100	100	100	100	90	100	100	100	100	100	100	–	Post-emergence action against ALOMY in % [1]: 90%; Post-emergence action against AVEFA in % [2]: 90%; Post-emergence action against AMARE in % [3]: 80%; Pre-emergence action against ALOMY in % [9]: 90%; Pre-emergence action against AVEFA in % [10]: 80%; Pre-emergence action against LOLRI in % [11]: 100%; Pre-emergence action against AMARE in % [12]: 100%; Pre-emergence action against POLCO in % [13]: 90%; Pre-emergence action against VIOTR in % [14]: 90%; Pre-emergence action against VERPE in % [15]: 80%
O=C(O)COc1nn(-c2nccnc2Cl)c(-c2ccc(F)nc2)c1Br [Example I-73]	100	–	100	100	–	100	–	100	100	100	100	90	–
CC(Oc1nn(-c2cnccn2)c(-c2ccc(F)nc2)c1Br)C(=O)O (racemic) [Example I-24]	100	–	–	–	–	100	100	–	90	–	90	90	–
COC(=O)[C@@H](C)Oc1nn(-c2cnccn2)c(-c2cncnc2)c1Br [Example I-30]	100	100	90	–	90	100	100	100	100	90	100	90	–
